Measurements from ChEMBL document CHEMBL4680375 (ACS Med Chem Lett, 2021).
Activity calls are given as the source filed them. The calls are words filed in the database; no cut-off is given here.

Columns and labels:
[1] = target: T1, NAD-dependent protein deacetylase sirtuin-1 (Homo sapiens, UniProt Q96EB6); assay: Inhibition of N-terminal hexa-His-tagged human SIRT1 (156 to 664 residues) expressed in Escherichia coli BL21 (DE3) assessed as deacetylation of Abz-labeled acetyl peptide using Abz-GVLKacAYNO2GY-NH2 peptide as substrate incubated for 30 mins in presence of NAD+ by fluorescence microplate reader assay
T1 sequence (Q96EB6 whole entry): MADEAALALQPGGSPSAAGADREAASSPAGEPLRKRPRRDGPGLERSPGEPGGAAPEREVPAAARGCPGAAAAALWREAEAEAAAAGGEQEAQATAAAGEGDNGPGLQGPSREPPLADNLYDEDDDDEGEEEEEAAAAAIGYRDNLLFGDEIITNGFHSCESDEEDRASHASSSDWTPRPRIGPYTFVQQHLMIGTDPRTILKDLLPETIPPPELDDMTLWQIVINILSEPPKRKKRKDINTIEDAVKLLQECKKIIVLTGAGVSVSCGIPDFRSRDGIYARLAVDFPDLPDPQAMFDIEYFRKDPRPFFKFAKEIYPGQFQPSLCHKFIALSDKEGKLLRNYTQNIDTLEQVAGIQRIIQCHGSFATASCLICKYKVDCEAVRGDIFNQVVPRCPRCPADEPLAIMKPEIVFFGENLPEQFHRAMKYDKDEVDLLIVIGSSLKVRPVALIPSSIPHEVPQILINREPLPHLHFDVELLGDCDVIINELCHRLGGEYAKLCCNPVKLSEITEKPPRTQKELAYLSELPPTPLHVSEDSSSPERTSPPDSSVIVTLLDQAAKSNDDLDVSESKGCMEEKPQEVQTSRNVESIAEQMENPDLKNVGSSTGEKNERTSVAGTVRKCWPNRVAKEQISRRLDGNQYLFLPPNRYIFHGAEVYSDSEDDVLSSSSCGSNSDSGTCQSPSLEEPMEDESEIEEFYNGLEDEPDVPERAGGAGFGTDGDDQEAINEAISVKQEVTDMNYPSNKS

[2] = target: NAD-dependent protein deacylase sirtuin-6 (Homo sapiens, UniProt Q8N6T7); assay: Inhibition of recombinant N-terminal hexa-His-tagged SIRT6 (3 to 318 residues) (unknown origin) expressed in Escherichia coli BL21 (DE3) using RHKKac-AMC as substrate incubated for 2 hrs in presence of NAD+ by fluorescence microplate reader assay
[3] = target: T2, NAD-dependent protein deacetylase sirtuin-2 (Homo sapiens, UniProt Q8IXJ6); assay: Inhibition of GST-fusion tagged human SIRT2 (34 to 356 residues) expressed in Escherichia coli BL21 (DE3) using Abz-GVLKacAYNO2GY-NH2 peptide as substrate incubated for 30 mins in presence of NAD+ by fluorescence microplate reader assay
T2 sequence (Q8IXJ6 whole entry): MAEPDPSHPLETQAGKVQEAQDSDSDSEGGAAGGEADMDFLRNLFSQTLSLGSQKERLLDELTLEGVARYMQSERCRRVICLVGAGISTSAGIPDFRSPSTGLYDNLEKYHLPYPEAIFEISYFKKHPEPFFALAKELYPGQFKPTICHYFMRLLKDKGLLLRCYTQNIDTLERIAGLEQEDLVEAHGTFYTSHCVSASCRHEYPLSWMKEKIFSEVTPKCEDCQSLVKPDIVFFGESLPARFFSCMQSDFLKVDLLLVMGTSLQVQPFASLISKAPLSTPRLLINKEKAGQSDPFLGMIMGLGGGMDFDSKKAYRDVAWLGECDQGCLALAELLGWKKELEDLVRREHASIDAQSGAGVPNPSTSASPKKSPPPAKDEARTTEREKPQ

[4] = target: NAD-dependent protein deacylase sirtuin-5, mitochondrial (Homo sapiens, UniProt Q9NXA8); assay: Inhibition of N-terminal 8His-tagged human SIRT5 (34 to 302 residues) expressed in Escherichia coli Rosetta2 (DE3) using Abz-GVLKacAYNO2GY-NH2 peptide as substrate incubated for 30 mins in presence of NAD+ by fluorescence microplate reader assay
[5] = target: T3, NAD-dependent protein deacetylase sirtuin-1 (Homo sapiens) (UniProt Q96EB6); assay: Inhibition of SIRT1 in human SH-SY5Y cells assessed as increase in ratio of acetylated p53 to p53 level by Western blot analysis; format: cell-based; conditions: dose 0.1-50 µM
T3 sequence (whole entry): T1 sequence (Q96EB6 whole entry)

[6] = target: T3, NAD-dependent protein deacetylase sirtuin-1 (Homo sapiens); assay: Inhibition of SIRT1 in human SH-SY5Y cells assessed as increase in acetylated p53 level at 10 uM measured after 72 hrs in presence of ATRA by Western blot analysis; format: cell-based
[7] = target: T3, NAD-dependent protein deacetylase sirtuin-1 (Homo sapiens); assay: Inhibition of SIRT1 in human SH-SY5Y cells assessed as increase in acetylated p53 level at 10 uM by Western blot analysis; format: cell-based

Sequence of NAD-dependent protein deacylase sirtuin-6 (Q8N6T7 whole entry, the tested form may be a part): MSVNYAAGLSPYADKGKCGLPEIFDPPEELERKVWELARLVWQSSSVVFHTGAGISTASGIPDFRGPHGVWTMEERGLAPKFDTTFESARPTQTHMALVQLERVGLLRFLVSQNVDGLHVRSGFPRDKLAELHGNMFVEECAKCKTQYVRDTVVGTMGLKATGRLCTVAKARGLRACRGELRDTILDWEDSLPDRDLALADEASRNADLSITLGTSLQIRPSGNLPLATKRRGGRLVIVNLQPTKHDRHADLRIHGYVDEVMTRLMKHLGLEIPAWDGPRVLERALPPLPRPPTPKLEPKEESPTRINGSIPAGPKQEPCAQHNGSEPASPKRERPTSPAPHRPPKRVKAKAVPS
Sequence of NAD-dependent protein deacylase sirtuin-5, mitochondrial (Q9NXA8 whole entry, the tested form may be a part): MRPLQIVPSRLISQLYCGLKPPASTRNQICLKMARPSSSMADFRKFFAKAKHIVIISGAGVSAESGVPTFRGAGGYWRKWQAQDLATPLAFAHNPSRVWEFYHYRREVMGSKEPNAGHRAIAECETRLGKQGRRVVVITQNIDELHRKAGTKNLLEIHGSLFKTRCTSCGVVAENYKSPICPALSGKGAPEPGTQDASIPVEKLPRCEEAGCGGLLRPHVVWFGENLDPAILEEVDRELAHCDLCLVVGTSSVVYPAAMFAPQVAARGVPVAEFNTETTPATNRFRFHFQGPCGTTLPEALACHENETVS

Row | IC50 ([1]; read-out: IC50) [µM] | Structure (SMILES) | other results
1 | 13.6 | COc1cc(OC)c(C=C2C(=O)OC(C)(c3ccccc3)OC2=O)cc1Br (stereo not given) | –
2 | 3.07 | Cc1cc(C=C2C(=O)OC(c3ccccc3)OC2=O)cc(C)c1O (stereo not given) | –
3 | 19 | CC(C)(C)c1cc(C=C2C(=O)OC(c3ccccc3)OC2=O)cc(C(C)(C)C)c1O (stereo not given) | –
4 | 2.48 | O=C1OC(c2ccccc2)OC(=O)C1=Cc1ccc(O)c(OCC2CC2)c1 (stereo not given) | –
5 | 11.9 | COc1cc(C=C2C(=O)OC(c3ccccc3)OC2=O)cc(OC)c1O (stereo not given) | –
6 | 0.46 | O=C1OC(c2ccccc2)OC(=O)C1=Cc1cc(I)c(O)c(I)c1 (stereo not given) | IC50 [2]: Not Active; IC50 [3]: 52.2 µM; IC50 ([4]; read-out: IC50): 4.98 µM; inhibition [5]: Dose-dependent effect; increase in acetylated p53 level (qualitative) [6]: Active
7 | 4.4 | Cc1cc(C=C2C(=O)OC(c3ccccc3)OC2=O)c(C)cc1O (stereo not given) | –
8 | 4.65 | O=C1OC(c2ccccc2)OC(=O)C1=Cc1ccc(O)c(F)c1 (stereo not given) | –
9 | 14.4 | COc1ccccc1C=C1C(=O)OC(C)(c2ccccc2)OC1=O (stereo not given) | –
10 | 5.41 | Cc1cc(C=C2C(=O)OC(c3ccccc3)OC2=O)ccc1O (stereo not given) | –
11 | 3.69 | CCOc1cc(C=C2C(=O)OC(c3ccccc3)OC2=O)cc([N+](=O)[O-])c1O (stereo not given) | –
12 | 2.52 | O=C1OC(c2ccccc2)OC(=O)C1=Cc1ccc(O)c(OCc2ccccc2)c1 (stereo not given) | –
13 | – | CC1(c2ccccc2)OC(=O)C(=Cc2ccccc2)C(=O)O1 (stereo not given) | IC50 [1]: Not Active
14 | 15.8 | COc1ccc(C=C2C(=O)OC(c3ccccc3)OC2=O)c(OC)c1OC (stereo not given) | –
15 | 7.63 | Nc1c(Br)cc(C=C2C(=O)OC(c3ccccc3)OC2=O)cc1Br (stereo not given) | –
16 | 3.52 | COc1cc(C=C2C(=O)OC(c3ccccc3)OC2=O)c(Br)cc1O (stereo not given) | –
17 | 2.47 | COc1cc(C=C2C(=O)OC(c3ccccc3)OC2=O)cc(Cc2ccccc2)c1O (stereo not given) | –
18 | 3.49 | COc1cc(C=C2C(=O)OC(c3ccccc3)OC2=O)cc([N+](=O)[O-])c1O (stereo not given) | –
19 | 7.06 | CC1(c2ccccc2)OC(=O)C(=Cc2ccc(O)cc2)C(=O)O1 (stereo not given) | –
20 | – | NC(=O)[C@@H]1CCCc2c1[nH]c1ccc(Cl)cc21 | IC50 [2]: Not Active; IC50 [4]: Not Active
21 | 18.8 | O=C1OC(c2ccccc2)OC(=O)C1=Cc1ccc(Cl)cc1 (stereo not given) | –
22 | 4.54 | O=C1OC(c2ccccc2)OC(=O)C1=Cc1cc(F)c(O)c(F)c1 (stereo not given) | –
23 | 1.4 | O=C1OC(c2ccccc2)OC(=O)C1=Cc1ccc(O)c(Br)c1 (stereo not given) | –

Row | IC50 ([1]; read-out: IC50) [µM] | Structure (SMILES) | other results
24 | 14 | CC(C)Oc1cccc(C=C2C(=O)OC(c3ccccc3)OC2=O)c1 (stereo not given) | –
25 | 7.92 | CCOc1cc(C=C2C(=O)OC(C)(c3ccccc3)OC2=O)ccc1O (stereo not given) | –
26 | 3.56 | O=C1OC(c2ccccc2)OC(=O)C1=Cc1ccc(O)cc1Br (stereo not given) | –
27 | 8.14 | COc1cc(C=C2C(=O)OC(c3ccccc3)OC2=O)ccc1OCc1ccc2c(c1)OCO2 (stereo not given) | –
28 | 0.7 | O=C1OC(c2ccccc2)OC(=O)C1=Cc1cc(Br)c(O)c(Br)c1 (stereo not given) | –
29 | 0.89 | COc1cc(C=C2C(=O)OC(c3ccccc3)OC2=O)cc(I)c1O (stereo not given) | IC50 [2]: Not Active; IC50 [3]: 49.4 µM; IC50 ([4]; read-out: IC50): 22.4 µM; increase in acetylated p53 level (qualitative) [6]: Active
30 | 16.8 | COc1ccc(OC)c(C=C2C(=O)OC(C)(c3ccccc3)OC2=O)c1 (stereo not given) | –
31 | 1.9 | COc1cc(C=C2C(=O)OC(c3ccccc3)OC2=O)cc(Cl)c1O (stereo not given) | increase in acetylated p53 level (qualitative) [6]: Active
32 | – | CC1=C(/C=C/C(C)=C/C=C/C(C)=C/C(=O)O)C(C)(C)CCC1 | inhibition [7]: inactive
33 | 5.49 | CCOc1cc(C=C2C(=O)OC(c3ccccc3)OC2=O)ccc1O (stereo not given) | –
34 | 3.76 | O=C1OC(c2ccccc2)OC(=O)C1=Cc1ccc(O)cc1F (stereo not given) | –
35 | 3.1 | CCc1cc(C=C2C(=O)OC(c3ccccc3)OC2=O)cc(CC)c1O (stereo not given) | –
36 | 1.2 | O=C1OC(c2ccccc2)OC(=O)C1=Cc1cc(Cl)c(O)c(Cl)c1 (stereo not given) | IC50 [2]: Not Active; IC50 [3]: 56.4 µM; IC50 ([4]; read-out: IC50): 37.4 µM; increase in acetylated p53 level (qualitative) [6]: Active
37 | 12.9 | COc1cc(C=C2C(=O)OC(C)(c3ccccc3)OC2=O)ccc1OCc1cccc(C(=O)O)c1 (stereo not given) | –
38 | 3.84 | O=C1OC(c2ccccc2)OC(=O)C1=Cc1ccc(O)c(Cl)c1 (stereo not given) | –
39 | 2.66 | COc1cc(C=C2C(=O)OC(c3ccccc3)OC2=O)cc(C(=O)OCc2ccccc2)c1O (stereo not given) | –
40 | 6.33 | O=C1OC(c2ccccc2)OC(=O)C1=Cc1ccc(O)cc1 (stereo not given) | –
41 | 0.68 | O=C1OC(c2ccccc2)OC(=O)C1=Cc1cc(Br)c(O)c(OCc2ccccc2)c1 (stereo not given) | –
42 | 0.61 | O=C1OC(c2ccccc2)OC(=O)C1=Cc1cc(I)c(O)c(OCc2ccccc2)c1 (stereo not given) | –
43 | 10 | O=C1OC(c2ccccc2)OC(=O)C1=Cc1ccc(OCc2cccc(C(=O)O)c2)cc1 (stereo not given) | –
44 | 10.2 | Nc1c(I)cc(C=C2C(=O)OC(c3ccccc3)OC2=O)cc1I (stereo not given) | –
45 | 1.14 | CCOc1cc(C=C2C(=O)OC(c3ccccc3)OC2=O)cc(Br)c1O (stereo not given) | –
